Assay [1] has as its target T1, GPR40 (Homo sapiens, UniProt O14842). The experiment in a line: Cell-based aequorin assay (CHO cells stably expressing GPR40 and aequorin). On the set-up: expressed in transfected cells; host or cells: CHO cells stably transfected with GPR40 and aequorin. The following applies: activation of human GPR40, CHO cells, 0.01% HSA. The procedure, abridged:
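CHO cells stably co-expressing GPR40 and aequorin, loaded with coelenterazine (1 ug/mL, 2 h, room temperature) in H/HBSS with 20 mM Hepes and 0.01% fatty acid-free HSA. Serially diluted compounds added; luminescence recorded over 20 s. EC50 from dose-response of maximum relative light units.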

Assay [2] deals with T1, GPR40. The assay is described as follows: Inositol phosphate accumulation assay (A9_GPR40 cells). As to conditions: inositol phosphate assay, A9_GPR40 cells, 1 hour; read-out: IP3 EC50. Type of assay: cell-based. On the set-up: expressed in transfected cells; host or cells: CHO cells stably transfected with GPR40 and aequorin. The procedure, abridged:
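[^3H] inositol phosphate accumulation was measured by SPA after 1 h compound exposure at 37° C in HBSS/10 mM LiCl containing HSA, ending with a 20 mM formic acid quench. The GPR40-transfected A9 cells had first been labelled overnight (16 h) with 1 μCi/mL ^3H-inositol.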

18 compounds from US8030354B2, “Substituted biphenyl GPR40 modulators” (Amgen Inc., priority 2007, dated 2011) can be followed below.

Broadly, the EC50 is the concentration that produces a half-maximal response.

Structures are written as SMILES.

T1 sequence (O14842 whole entry): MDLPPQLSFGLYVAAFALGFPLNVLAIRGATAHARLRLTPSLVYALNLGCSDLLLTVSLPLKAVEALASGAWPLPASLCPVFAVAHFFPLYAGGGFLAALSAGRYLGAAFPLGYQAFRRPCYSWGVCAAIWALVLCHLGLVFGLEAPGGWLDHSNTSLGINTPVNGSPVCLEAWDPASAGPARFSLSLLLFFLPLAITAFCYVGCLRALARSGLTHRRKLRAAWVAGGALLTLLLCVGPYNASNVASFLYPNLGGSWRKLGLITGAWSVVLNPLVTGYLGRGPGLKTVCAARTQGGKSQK

As to `COc1ccc(F)c(-c2ccc(COc3cccc(C(CC(=O)O)C4CCC4)c3)cc2C(C)(C)C)c1` (single isomer, unassigned) [Example 70.3, (3S)-3-Cyclobutyl-3-(3-(((2-(1,1-dimethylethyl)-2′-fluoro-5′-(methyloxy)-1,1′-biphenyl-4-yl)methyl)oxy)phenyl)propanoic acid or (3R)-3-cyclobutyl-3-(3-(((2-(1,1-dimethylethyl)-2′-fluoro-5′-(methyloxy)-1,1′-biphenyl-4-yl)methyl)oxy)phenyl)propanoic acid], the concentration for a half-maximal effect (EC50) is 100 to 1000 nM at GPR40 [1] and 10 to 100 nM at GPR40 [2].
The like results for `COc1ccc(F)c(-c2ccc(COc3cccc(C(CC(=O)O)C4CC4)c3F)cc2C2CCCCC2(C)C)c1` (single isomer, unassigned) [Example 83.7] were, in that order, 100 to 1000 nM and below 10 nM.
Consider `CCCCOc1cc(COc2cccc([C@@H](CC(=O)O)C(F)(F)F)c2)ccc1-c1cc(OC)ccc1F` (single isomer, unassigned) [Example 7, (3R)-3-(3-(((2-(Butyloxy)-2′-fluoro-5′-(methyloxy)-1,1′-biphenyl-4-yl)methyl)oxy)phenyl)-4,4,4-trifluorobutanoic acid or (3S)-3-(3-(((2-(butyloxy)-2′-fluoro-5′-(methyloxy)-1,1′-biphenyl-4-yl)methyl)oxy)phenyl)-4,4,4-trifluorobutanoic acid], for which the EC50 on GPR40 [1] and on GPR40 [2] was 1000 to 10000 nM each time.
Consider `C=CC(C)(C)[C@H](OC)c1cc(COc2cccc([C@H](CCC)CC(=O)O)c2)ccc1-c1cc(OC)ccc1F` (single isomer, unassigned) [Example 67.24], for which the figures for the EC50 on GPR40 [1] and on GPR40 [2] were 100 to 1000 nM and 10 to 100 nM, respectively.
For the compound `CCC(CC(=O)O)c1cccc(OCc2ccc(-c3cc(OC)ccc3F)c(C3=CCCC3(C)C)c2)c1` (single isomer, unassigned) [Example 65.1, (3R)-3-(3-(((2-(5,5-Dimethyl-1-cyclopenten-1-yl)-2′-fluoro-5′-(methyloxy)-1,1′-biphenyl-4-yl)methyl)oxy)phenyl)pentanoic acid or (3S)-3-(3-(((2-(5,5-dimethyl-1-cyclopenten-1-yl)-2′-fluoro-5′-(methyloxy)-1,1′-biphenyl-4-yl)methyl)oxy)phenyl)pentanoic acid], the figures for the concentration for a half-maximal effect (EC50) at GPR40 [1] and at GPR40 [2] were 100 to 1000 nM and 10 to 100 nM, respectively.
As to `COc1ccc(F)c(-c2ccc(COc3cccc(C(C)CC(=O)O)c3)cc2C2=CCCCC2)c1` (single isomer, unassigned) [Example 64.21, (3R)-3-(3-(((2-(1-Cyclohexen-1-yl)-2′-fluoro-5′-(methyloxy)-1,1′-biphenyl-4-yl)methyl)oxy)phenyl)butanoic acid or (3S)-3-(3-(((2-(1-cyclohexen-1-yl)-2′-fluoro-5′-(methyloxy)-1,1′-biphenyl-4-yl)methyl)oxy)phenyl)butanoic acid], the EC50 on GPR40 [1] fell in the range of 100 to 1000 nM; on GPR40 [2], 10 to 100 nM.
In the case of `COc1ccc(F)c(-c2ccc(COc3cccc(C(CC(=O)O)C4CCC4)c3)cc2C2=CCCC2(C)C)c1` (single isomer, unassigned) [Example 70.2, (3S)-3-Cyclobutyl-3-(3-(((2-(5,5-dimethyl-1-cyclopenten-1-yl)-2′-fluoro-5′-(methyloxy)-1,1′-biphenyl-4-yl)methyl)oxy)phenyl)propanoic acid or (3R)-3-cyclobutyl-3-(3-(((2-(5,5-dimethyl-1-cyclopenten-1-yl)-2′-fluoro-5′-(methyloxy)-1,1′-biphenyl-4-yl)methyl)oxy)phenyl)propanoic acid], the EC50 on GPR40 [1] was in the range of 100 to 1000 nM; on GPR40 [2] it was 10 to 100 nM.
For `CCCCC(CC(=O)O)c1cccc(OCc2ccc(-c3cc(OC)ccc3F)c(C3=CCCC3(C)C)c2)c1` (single isomer, unassigned) [Example 71.3, (3R)-3-(3-(((2-(5,5-Dimethyl-1-cyclopenten-1-yl)-2′-fluoro-5′-(methyloxy)-1,1′-biphenyl-4-yl)methyl)oxy)phenyl)heptanoic acid or (3S)-3-(3-(((2-(5,5-dimethyl-1-cyclopenten-1-yl)-2′-fluoro-5′-(methyloxy)-1,1′-biphenyl-4-yl)methyl)oxy)phenyl)heptanoic acid], the EC50 lay in the range of 100 to 1000 nM on GPR40 [1] and 10 to 100 nM at GPR40 [2].
As to `COC(c1cc(COc2cccc(C(CC(=O)O)C3CC3)c2)ccc1-c1ccccc1F)C(C)(C)C` (single isomer, unassigned) [Example 66.33], the half-maximal effective concentration (EC50) on GPR40 [1] lay in the range of 100 to 1000 nM; on GPR40 [2] it was 10 to 100 nM.
Regarding `COc1ccc(F)c(-c2ccc(COc3cccc([C@@H](CC(=O)O)CC4CC4)c3)cc2C2CCCC2C)c1` (single isomer, unassigned) [Example 69.33, (3R)-4-Cyclopropyl-3-(3-(((2′-fluoro-2-(2-methylcyclopentyl)-5′-(methyloxy)-1,1′-biphenyl-4-yl)methyl)oxy)phenyl)butanoic acid or (3S)-4-cyclopropyl-3-(3-(((2′-fluoro-2-(2-methylcyclopentyl)-5′-(methyloxy)-1,1′-biphenyl-4-yl)methyl)oxy)phenyl)butanoic acid], the figures for the concentration for a half-maximal effect (EC50) at GPR40 [1] and at GPR40 [2] were 100 to 1000 nM and 10 to 100 nM, respectively.
Turning to `CCC(CC(=O)O)c1cccc(NCc2ccc(-c3cc(OC)ccc3F)c(C3=CCCC3(C)C)c2)c1` (single isomer, unassigned) [Example 81, (3R)-3-(3-(((2-(5,5-Dimethyl-1-cyclopenten-1-yl)-2′-fluoro-5′-(methyloxy)-1,1′-biphenyl-4-yl)methyl)amino)phenyl)pentanoic acid or (3S)-3-(3-(((2-(5,5-dimethyl-1-cyclopenten-1-yl)-2′-fluoro-5′-(methyloxy)-1,1′-biphenyl-4-yl)methyl)amino)phenyl)pentanoic acid], the EC50 at GPR40 [1] is 100 to 1000 nM; at GPR40 [2], above 10000 nM.
Take `COc1ccc(F)c(-c2ccc(COc3cccc(C(CC(=O)O)CC4CC4)c3)cc2C2CCCCCC2)c1` (single isomer, unassigned) [Example 69.1, (3R)-3-(3-(((2-Cycloheptyl-2′-fluoro-5′-(methyloxy)-1,1′-biphenyl-4-yl)methyl)oxy)phenyl)-4-cyclopropylbutanoic acid or (3S)-3-(3-(((2-cycloheptyl-2′-fluoro-5′-(methyloxy)-1,1′-biphenyl-4-yl)methyl)oxy)phenyl)-4-cyclopropylbutanoic acid]: the concentration for a half-maximal effect (EC50) at GPR40 [1] was 100 to 1000 nM; at GPR40 [2] it was below 10 nM.
For the compound `CCCC(C)(C)c1cc(COc2cccc(C(C)CC(=O)O)c2)ccc1-c1cc(OC)ccc1F` (single isomer, unassigned) [Example 64.11, (3R)-3-(3-(((2-(1,1-Dimethylbutyl)-2′-fluoro-5′-(methyloxy)-1,1′-biphenyl-4-yl)methyl)oxy)phenyl)butanoic acid or (3S)-3-(3-(((2-(1,1-dimethylbutyl)-2′-fluoro-5′-(methyloxy)-1,1′-biphenyl-4-yl)methyl)oxy)phenyl)butanoic acid], the EC50 at GPR40 [1] and on GPR40 [2] was 100 to 1000 nM in each case.
As for `COc1cc(-c2ccc(COc3cc(F)cc(C(CC(=O)O)CC4CC4)c3)cc2C2CCCC2(C)C)c(F)cn1` (single isomer, unassigned) [Example 89.4], the results for the concentration giving a half-maximal response (EC50) at GPR40 [1] and at GPR40 [2] were 100 to 1000 nM and below 10 nM, respectively.
As to `CCC(CC(=O)O)c1cccc(OCc2ccc(-c3cc(OC)ncc3F)c(C(O)(C(C)(C)C)C(C)(C)C)c2)c1F` (single isomer, unassigned) [Example 77.11, (3R)-3-(3-(4-(5-Fluoro-2-methoxypyridin-4-yl)-3-(3-hydroxy-2,2,4,4-tetramethylpentan-3-yl)benzyloxy)-2-fluorophenyl)pentanoic acid or (3R)-3-(3-(4-(5-fluoro-2-methoxypyridin-4-yl)-3-(3-hydroxy-2,2,4,4-tetramethylpentan-3-yl)benzyloxy)-2-fluorophenyl)pentanoic acid], the concentration giving a half-maximal response (EC50) at GPR40 [1] was 100 to 1000 nM; at GPR40 [2] it was below 10 nM.
For `COc1cccc(-c2ccc(COc3cccc(C(CC(=O)O)C4CCC4)c3)cc2C2CCCC2(C)C)c1` (single isomer, unassigned) [Example 79.6], in that order: 100 to 1000 nM and 10 to 100 nM.
As to `CC[C@H](CC(=O)O)c1cccc(OCc2ccc(-c3cc(OC)ccc3F)c(C(C)(C)C)c2)c1` (single isomer, unassigned) [Example 17, (3R)-3-(3-(((2-(1,1-Dimethylethyl)-2′-fluoro-5′-(methyloxy)-1,1′-biphenyl-4-yl)methyl)oxy)phenyl)pentanoic acid or (3S)-3-(3-(((2-(1,1-dimethylethyl)-2′-fluoro-5′-(methyloxy)-1,1′-biphenyl-4-yl)methyl)oxy)phenyl)pentanoic acid], the concentration for a half-maximal effect (EC50) at GPR40 [1] and at GPR40 [2] was 100 to 1000 nM each time.
Take `COc1ccc(F)c(-c2ccc(COc3cccc(C(C)CC(=O)O)c3)cc2CCC(C)(C)C)c1` (single isomer, unassigned) [Example 64.6, (3R)-3-(3-(((2-(3,3-Dimethylbutyl)-2′-fluoro-5′-(methyloxy)-1,1′-biphenyl-4-yl)methyl)oxy)phenyl)butanoic acid or (3S)-3-(3-(((2-(3,3-dimethylbutyl)-2′-fluoro-5′-(methyloxy)-1,1′-biphenyl-4-yl)methyl)oxy)phenyl)butanoic acid]: the values for the EC50 on GPR40 [1] and on GPR40 [2] were 100 to 1000 nM and 10 to 100 nM, respectively.
